From patent US8183395B2, “Compositions and methods for treating cancer” (Rutgers, The State University of New Jersey, priority 2007, dated 2012)

How the values were obtained:
Assay type in all cases: cell-based
[1] = test system: W2 (apoptosis competent) cells; assay: Apoptosis induction screen, MTT cell viability, W2 cells
Text: (§1) Pro-apoptotic Bax and Bak are the essential and redundant regulators of apoptosis required for suppressing tumor growth and chemotherapeutic response. Because D3 cells are genetically deleted for Bax and Bak, there is no means to restore apoptosis in these cells, yet all apoptosis regulatory mechanisms upstream (Bcl-2, Bcl-xL, Bim, Nbk/Bik, Puma, Noxa, caspase-3, caspase-7) remain intact. […] This feature permits the use of W2 and D3 cell lines in biological screening for compounds that promote apoptosis by the criteria of killing W2 and not D3 cells. Compounds that indiscriminately kill both apoptosis-competent W2 and apoptosis-defective D3 cells are eliminated as non-specifically toxic.
(§2) W2 and D3 cells were plated in 96 and 24-well plates and incubated for 24 hours after which they were evenly spread at about 50% confluency. At this time, compounds dissolved in DMSO and diluted in growth medium (DMEM) were added to the cells at various concentrations. […] Cell viability was determined using a modification of the MTT assay, where the reduction of yellow tertazolium salt (MTT-3-(4,5-Dimethylthiazol-2-yl)-2,5) to purple formazan indicates mitochondrial activity, and thus cell viability. […] After 30 minutes incubation at 37° C., with shaking, absorbance was read at 570 nm on a Spectra MAX 250 (Molecular Devices) plate reader. Differential growth from time 0 to 48 hours was calculated. […]

[2] = test system: D3 (apoptosis defective) cells; assay: Apoptosis induction screen, MTT cell viability, D3 cells; settings: MTT assay, time 0 to 48 hours, Compound I 12 μM (FIG. 3a)
Text: as §1, §2

[3] = test system: apoptosis competent W2 cells; assay: Time-lapse microscopy of cell division and viability, W2 cells; design: sensitivity of W2 cells to apoptosis: dose or concentration left out as unconfirmed
Procedure: (§3) In order to determine the differential impact of apoptosis induction on cell growth and viability of W2 and D3 cells, cell division and viability was monitored via time-lapse microscopy. Cells were cultured in a time-lapse chamber equipped with controlled environmental conditions. The time-lapse microscopy system consisted of an Olympus IX71 inverted microscope fitted with temperature, humidity and CO2 controlled environmental chamber (Solent Scientific, UK) and a Coolsnap ES cooled
(§4) CCD camera. Image capturing and analysis were performed using Image-Pro Plus software (Media Cybernetics, USA). Phase contrast images (100×) at multiple fields were obtained for the indicated time period. Time-lapse images were converted to movies using Image-Pro Plus software with custom modifications and a graphic data processing workstation (Dell Precision 670).
(§5) W2 and D3 cells were incubated for 48 hours in the presence of Compound I […] (FIG. 3b).

[4] = test system: apoptosis resistant D3 cells; assay: Time-lapse microscopy of cell division and viability, D3 cells; design: dose or concentration left out as unconfirmed
Procedure: as §3, §4, §5

Row | SMILES | death of W2 ([1]; MTT assay, time 0 to 48 hours, Compound I 12 μM (FIG. 3a)) [%] | growth of D3 [2] [%] | sensitivity of W2 cells to apoptosis ([3]; 48 hours) | time to induction of cell death of W2 cells (rounded and detached) ([3]; DMEM with 10% FBS, 5% CO2 at 37° C.) [h] | growth arrest in treated D3 cells [4] | survival of the D3 cells [4] | viability of D3 cells ([4]; at 48 hours, persisted following 72 hours) | apoptosis induction (positive control) ([1]; W2 and D3 cells, 0.1 μM staurosporine)
1 | C=C1CC/C=C(\C)CC[C@@H]2C(C(CC3OC3(C)C)OC(C)=O)=CO[C@H](OC(C)=O)[C@@H]12 (some centres unmarked) [Compound I, 9-deacetoxyxeniculin] | 50 | 61 | highly sensitive to apoptosis | 18 to 24 | clear indication of growth arrest | at least 72 hours | retained their viability | –
2 | CN[C@@H]1C[C@H]2O[C@@](C)([C@@H]1OC)n1c3ccccc3c3c4c(c5c6ccccc6n2c5c31)C(=O)NC4 [staurosporine, reference compound] | – | – | – | – | – | – | – | induced apoptosis at comparable levels to Compound I
